Experimental data: ChEMBL document CHEMBL1201862, “PubChem BioAssay data set” (2004)
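Protocol summary: plate cells (96-well), add compound at 5 concentrations, incubate 48 h, interpolate endpoints linearly. Here, GI50 denotes the concentration required for 50% inhibition of growth.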 Activity calls are given as the source filed them. Cut-off read from the data, not from the text of the source: active = GI50 up to about 1.1 µM and inactive = higher.

Experiments:
Assay in all cases: inhibition of tumour cell growth, NCI panel, 48 h
SN12C = system: SN12C
CCRF-CEM = system: CCRF-CEM
SF-539 = system: SF-539
HCT-15 = system: HCT-15
IGROV-1 = system: IGROV-1
OVCAR-8 = system: OVCAR-8
786-0 = system: 786-0
NCI-H460 = system: NCI-H460
HOP-62 = system: HOP-62
EKVX = system: EKVX
SK-MEL-5 = system: SK-MEL-5
Malme-3M = system: Malme-3M
TK-10 = system: TK-10
M14 = system: M14
OVCAR-5 = system: OVCAR-5
MDA-N = system: MDA-N
PC-3 = system: PC-3
SK-MEL-2 = system: SK-MEL-2
NCI/ADR-RES = system: NCI/ADR-RES
BT-549 = system: BT-549
NCI-H522 = system: NCI-H522
KM-20L2 = system: KM-20L2
HCT-116 = system: HCT-116
T47D = system: T47D
KM12 = system: KM12
SR = system: SR
HL-60 = system: HL-60
RPMI-8226 = system: RPMI-8226
MOLT-4 = system: MOLT-4
HOP-92 = system: HOP-92
MDA-MB-231 = system: MDA-MB-231
MCF7 = system: MCF7
DLD-1 = system: DLD-1
NCI-H226 = system: NCI-H226
SNB-75 = system: SNB-75
LXFL 529 = system: LXFL 529
SK-MEL-28 = system: SK-MEL-28
SF-268 = system: SF-268
DMS-273 = system: DMS-273
K562 = system: K562
DMS-114 = system: DMS-114
OVCAR-3 = system: OVCAR-3
UO-31 = system: UO-31
A549 = system: A549
SNB-19 = system: SNB-19
SF-295 = system: SF-295
Hs-578T = system: Hs-578T
HT-29 = system: HT-29
UACC-62 = system: UACC-62
DU-145 = system: DU-145
SW-620 = system: SW-620
CAKI-1 = system: CAKI-1
MDA-MB-435 = system: MDA-MB-435
M19-MEL = system: M19-MEL
A498 = system: A498
UACC-257 = system: UACC-257
RXF 393 = system: RXF 393
OVCAR-4 = system: OVCAR-4
ACHN = system: ACHN
SK-OV-3 = system: SK-OV-3
SNB-78 = system: SNB-78
U-251 = system: U-251
LOX IMVI = system: LOX IMVI
COLO 205 = system: COLO 205
NCI-H23 = system: NCI-H23
HCC 2998 = system: HCC 2998
XF498 = system: XF498

Measured: GI50

N#CC(C#N)SCc1ccccc1
31.1 µM: HCT-15
inactive: SN12C 8.3 µM | CCRF-CEM 1.7 µM | SF-539 5.19 µM | IGROV-1 23.1 µM | OVCAR-8 15 µM | 786-0 15.7 µM | NCI-H460 14.7 µM | HOP-62 15.7 µM | EKVX > 96.2 µM | SK-MEL-5 11.9 µM | Malme-3M 47.8 µM | TK-10 26.5 µM | M14 11.5 µM | OVCAR-5 17.3 µM | MDA-N 1.63 µM | PC-3 2.79 µM | SK-MEL-2 7.36 µM | NCI/ADR-RES 6.64 µM | BT-549 1.85 µM | NCI-H522 5.86 µM | KM-20L2 32.3 µM | HCT-116 6.55 µM | T47D 18.5 µM | KM12 19.7 µM | HL-60 4.44 µM | RPMI-8226 6.18 µM | MOLT-4 1.67 µM | HOP-92 15.5 µM | MDA-MB-231 2.66 µM | MCF7 4.55 µM | DLD-1 36.6 µM | NCI-H226 30.1 µM | SNB-75 38 µM | LXFL 529 33.7 µM | SK-MEL-28 36.2 µM | SF-268 29.4 µM | DMS-273 39.2 µM | K562 1.12 µM | DMS-114 24.4 µM | OVCAR-3 23.8 µM | UO-31 20.1 µM | A549 16.6 µM | SNB-19 21 µM | SF-295 16.8 µM | Hs-578T 26.5 µM | HT-29 27.4 µM | UACC-62 34.4 µM | DU-145 22.9 µM | SW-620 4.59 µM | CAKI-1 17.7 µM | MDA-MB-435 17.6 µM | M19-MEL 54.1 µM | A498 > 71.4 µM | UACC-257 23.1 µM | RXF 393 26.8 µM | OVCAR-4 23.7 µM | ACHN 40.4 µM | SK-OV-3 24.4 µM | SNB-78 33 µM | U-251 19.5 µM | LOX IMVI 5.11 µM | COLO 205 15.6 µM | NCI-H23 10.5 µM | HCC 2998 61.2 µM
active: SR 1.11 µM

O=c1ccc(=O)c2c(=O)c3ccccc3c(=O)c1=2
inactive: SN12C 38.5 µM | CCRF-CEM 33 µM | SF-539 26 µM | IGROV-1 > 100 µM | OVCAR-8 27.5 µM | 786-0 39.7 µM | NCI-H460 29.3 µM | HOP-62 36.6 µM | EKVX 28.7 µM | SK-MEL-5 15.7 µM | Malme-3M 26.5 µM | TK-10 > 100 µM | M14 46 µM | OVCAR-5 > 100 µM | SK-MEL-2 20.8 µM | NCI-H522 29.8 µM | HCT-116 20.7 µM | XF498 > 100 µM | KM12 37.1 µM | HL-60 17.2 µM | RPMI-8226 27.5 µM | MOLT-4 23 µM | HOP-92 > 100 µM | DLD-1 38.2 µM | SNB-75 > 100 µM | LXFL 529 > 100 µM | SK-MEL-28 > 100 µM | SF-268 35.6 µM | DMS-273 46.7 µM | K562 > 100 µM | DMS-114 29 µM | OVCAR-3 21.2 µM | UO-31 57.8 µM | A549 37.4 µM | SNB-19 41.3 µM | SF-295 34.4 µM | UACC-62 36.7 µM | SW-620 32.7 µM | CAKI-1 50 µM | M19-MEL 14.3 µM | A498 > 100 µM | UACC-257 30.8 µM | RXF 393 48.3 µM | OVCAR-4 61 µM | ACHN 60.3 µM | SK-OV-3 > 100 µM | SNB-78 60.5 µM | U-251 43.6 µM | LOX IMVI 42.6 µM | COLO 205 99.3 µM | NCI-H23 70.3 µM | HCC 2998 54.7 µM
46.2 µM: HCT-15

CN1CCc2cc(O)c3cc2C1Cc1ccc(cc1)Oc1cc(ccc1O)CC1c2c(cc4c(c2O3)OCO4)CCN1C (stereo not drawn)
inactive: SN12C 32.9 µM | CCRF-CEM 27.7 µM | SF-539 17.3 µM | IGROV-1 25.6 µM | OVCAR-8 19.8 µM | 786-0 58.2 µM | NCI-H460 46.2 µM | EKVX 18.1 µM | SK-MEL-5 18.9 µM | TK-10 24.2 µM | M14 16.8 µM | OVCAR-5 27 µM | SK-MEL-2 16.1 µM | KM-20L2 18.2 µM | HCT-116 36.6 µM | XF498 14.4 µM | KM12 29.9 µM | SR 28.8 µM | HL-60 16.3 µM | MOLT-4 24.3 µM | DLD-1 75.3 µM | NCI-H226 22.9 µM | SNB-75 13.4 µM | SK-MEL-28 21.3 µM | SF-268 33.1 µM | DMS-273 24.8 µM | K562 17.2 µM | DMS-114 18.2 µM | OVCAR-3 75 µM | UO-31 1.6 µM | A549 45.7 µM | SNB-19 44.6 µM | SF-295 21.5 µM | HT-29 21.2 µM | UACC-62 24.2 µM | RXF 393 11.2 µM | OVCAR-4 28.8 µM | ACHN 28.7 µM | SNB-78 > 100 µM | U-251 30.1 µM | COLO 205 13.5 µM | NCI-H23 > 100 µM | HCC 2998 19.5 µM
22.5 µM: HCT-15
